According to patent publication US9585929B2 (ZHEJIANG KANGLAITE GROUP CO., LTD., priority 2014, dated 2017):
Converted amounts (≈) assume the structure as drawn. Marks after values point to notes of the source that are not given here.

What was measured:
S180 sarcoma = S180 sarcoma model in mice; type: in vivo, Kunmin mice
Protocol: The injection of the invention (10 g/100 ml), Cyclophosphamide (CTX), Mitoxantrone (DHAD), Mitomycin (MMC) and normal saline
Ascitic fluid of mice having well-grown […] sarcoma was diluted with normal saline (1:4) to obtain a cell suspension of about 1-2×10^7 cells/ml. Each mouse was inoculated with 0.2 ml of the suspension subcutaneously at the right axilla, and the mice were grouped randomly. The administration began from the next day according to the dosage program in Table 7. On the tenth day after the inoculation of S180, animals were sacrificed via cervical dislocation and dissected to take out the tumor block. Weights of tumor were compared and inhibition rates were calculated for each group.

[1] = test system: A549 (human lung cancer cells); experiment: MTT inhibition of tumor cell growth in vitro; type: cell-based
Protocol: (§1) The inhibition effects of samples on the above-mentioned cell lines were detected by using MTT method. The specific procedures were as follows:
(§2) (1) Cell culture: (a) Storaged cells were taken out from the liquid nitrogen, thawed quickly in a 37 water bath, then aseptically transferred into 6 ml of cellular medium in a 10 ml centrifugal tube, centrifuged at 1000 rpm for 5 min. The supernatant was discarded, then the precipitated cells were re-suspensed in 5-6 ml cellular media by pipetting and transferred into a flask in a 37 incubator for cell culture; (b) Next day, the flask was taken out from the incubator and the used medium was discarded, then the cells were incubated in 5-6 ml fresh medium in the 37 incubator; (c) On the third day, the flask was taken out from the incubator and the used medium was discarded, then 2-3 ml of PBS (pH7.4) was added into the flask with rocking for cleaning it and the used PBS was discarded. Such a cellular cleaning step was repeated once again. 3-5 drops of 0.25% trypsin solution were added into the flask with sloshing, thus well-distributed in it. The flask was capped and placed in a 37 incubator for about 3 min, and the separation of cells from the flask wall was observed under the microscope. 2 ml of cellular medium was added and cells were separated completely from the flask wall by pipetting, then the cell suspension was transferred into 2 separate clean flasks, each containing 5-6 ml medium. The cell suspension was well-distributed by pipetting, then the flask was placed in a 37 incubator. (d) Step (c) was repeated every other day. In the whole cultivation process, adherent cells were not allowed to grow too dense and suspension cells were always maintained at a logarithmic growth stage.
(§3) This solution was diluted in a gradient dilution with PBS to obtain a set of sample solutions in the concentration of 10 mg/ml, 5000 μg/ml, 2500 μg/ml, 1250 μg/ml, 625 μg/ml and 312.5 μg/ml, respectively.
(§4) (3) Each diluted sample solution was added into duplicated wells of a 96 well flat-bottom microplate (10 μl/well). The correspondingly diluted DMSO solutions, as controls, were added into the wells of the microplate.
(§5) (4) Cells in a logarithmic growth stage were trypsinized and washed, then re-suspended in the medium containing 10% calf serum. The number of living cells was counted in Trypan blue dye exclusion method and cell suspensions were adjusted into a density of 2×10^5 cell/ml.
(§6) (5) The cell-contained 96 well flat-bottom microplate was placed in a 37 incubator and cells were incubated under 5% CO2 for 48 h.
(§7) (6) 20 μl of 5 mg/ml MTT solution was added into each well and cells were incubated continuously in the incubator for 3-4 h.
(§8) (7) 100 μl of crystal dissolving solution was added into each well and cells were incubated continuously in the incubator overnight, so as to dissolve the resulted formazan crystals sufficiently. Then, the absorbance value was measured at 570 nm for each well.
(§9) (8) Based on absorbance values, inhibition rates on the cell growth were calculated for sample groups of various concentrations. The calculation formula was as follows: (1−mean absorbance of experimental wells/mean absorbance of control wells)×100%

[2] = test system: Bcap-37 (human breast cancer cells); experiment: MTT inhibition of tumor cell growth in vitro; type: cell-based; conditions: Bcap37
Protocol: as §1, §2, §3, §4, §5, §6, §7, §8, §9

[3] = test system: H460 (human lung cancer cells); experiment: MTT inhibition of tumor cell growth in vitro; type: cell-based; conditions: NCI-H460
Protocol: as §1, §2, §3, §4, §5, §6, §7, §8, §9

[4] = test system: HepG-2 (human hepatic cancer cells); experiment: MTT inhibition of tumor cell growth in vitro; type: cell-based; conditions: HepG2
Protocol: as §1, §2, §3, §4, §5, §6, §7, §8, §9

[5] = test system: MCF-7 (human breast cancer cells); experiment: MTT inhibition of tumor cell growth in vitro; type: cell-based; conditions: MCF7
Protocol: as §1, §2, §3, §4, §5, §6, §7, §8, §9

[6] = test system: PANC-1 (human pancreatic cancer cells); experiment: MTT inhibition of tumor cell growth in vitro; type: cell-based
Protocol: as §1, §2, §3, §4, §5, §6, §7, §8, §9

[7] = test system: SKOV3 (human ovarian cancer cells); experiment: MTT inhibition of tumor cell growth in vitro; type: cell-based; conditions: SK-OV-3
Protocol: as §1, §2, §3, §4, §5, §6, §7, §8, §9

[8] = test system: SMMC-7721 (human hepatic cancer cells); experiment: MTT inhibition of tumor cell growth in vitro; type: cell-based
Protocol: as §1, §2, §3, §4, §5, §6, §7, §8, §9

[9] = test system: MDA-MB-435 human breast cancer; experiment: MDA-MB-435 human breast cancer model in nude mice; type: in vivo, BALB/C nude mice; conditions: Paclitaxel 50 mg/kg ip × 1
Protocol: Each nude mouse was inoculated with 0.2 ml of the suspension at the right axilla subcutaneously, and the mice were grouped randomly. The administration began from the 7th day after the inoculation. 18 Days after the inoculation, the mice were sacrificed. Tumor blocks were taken out and weighed. Differences of tumor weight between each experimental group and the control group were compared, and tumor inhibition rates and Q values were calculated.

A549 human lung cancer = experiment: Xenograft model of A549 human lung cancer inoculated subcutaneously in nude mice; type: in vivo, BALB/C nude mice
Protocol: A549 Human lung cancer cells cryopreserved in liquid nitrogen were recovered, and incubated in a 37 incubator under 5% CO2. After being subcultured, cells in a logarithmic growth stage were distributed with normal saline to be a cell suspension in a concentration of 1-2×10^7 cells/ml. The cell suspension was inoculated into BALB/C nude mice (SPF grade, 18-20 g, 6 weeks old, male) subcutaneously at right axillary. The tumor tissues were aseptically taken from the 2nd generation of xenograft model of A549 human lung cancer in a vigorous growth stage and cut into small uniform pieces in the size of 1-2 mm^3. The right axillary of each nude mouse was inoculated one piece subcutaneously via a trocar. When the inoculated tumor could be touched, the mice were randomly grouped and administered according to the experimental design program. All contacted feed, padding, cages and equipment, etc., should be autoclaved prior to use. The nude mice were fed in a laminar flow rack. Tumor sizes and animal weights were observed and tested dynamically. Mice in each group were sacrificed 3 weeks later or so, and tumors were surgically removed and weighed. The inhibition rate on tumor was calculated according to the following formula: Inhibition rate %=[(Mean tumor weight of the control group−mean tumor weight of the treatment group)/mean tumor weight of the control group]×100%;
Q value of antitumor effect in drug combination was calculated according to Jin's formula: Q=Ea+b/(Ea+Eb−Ea×Eb) Wherein Ea+b=the tumor inhibition rate of drug combination, Ea or Eb=the tumor inhibition rate of drug A or drug B, respectively. If Q value=0.85-1.15, an additive effect (+) was shown; if Q value>1.15, a synergistic effect (++) was shown.

[10] = test system: FC-3M human prostate cancer; experiment: FC-3M human prostate cancer model in nude mice; type: in vivo, BALB/C nude mice
Protocol: The injection of the invention (10 g/100 ml), Leuprolide acetate (Lupron) and normal saline
Tumor blocks of well-grown FC-3M human prostate cancer were homogenized in normal saline (1:4). Each nude mouse was inoculated with 0.2 ml of the suspension at the right axilla subcutaneously, and the mice were grouped randomly. The administration began from the next day. 21 Days after the inoculation, the mice were sacrificed. Tumor blocks were taken out and weighed. Differences of tumor weight between each experimental group and the control group were compared and the tumor inhibition rates were calculated.

CO[C@@]12[C@H](COC(N)=O)C3=C(C(=O)C(C)=C(N)C3=O)N1C[C@@H]1N[C@@H]12 [MMC, Mitomycin]
Inhibition rate (S180 sarcoma; MMC 1.5 mg/kg ip × 2(1, 3)): 38.61* % | Weight of tumor x ± SD (S180 sarcoma; MMC 1.5 mg/kg ip × 2(1, 3)): 0.97 ± 0.19 g

CC(=O)O[C@H]1C(=O)[C@@]2(C)[C@H]([C@H](OC(=O)c3ccccc3)[C@]3(O)C[C@H](OC(=O)[C@H](O)[C@@H](NC(=O)c4ccccc4)c4ccccc4)C(C)=C1C3(C)C)[C@]1(OC(C)=O)CO[C@@H]1C[C@@H]2O [Taxol, paclitaxel]
IC50 [1]: 0.46 µg/mL (≈ 0.539 µM) | IC50 [2]: 0.28 µg/mL (≈ 0.328 µM) | IC50 [3]: 0.49 µg/mL (≈ 0.574 µM) | IC50 [4]: 0.45 µg/mL (≈ 0.527 µM) | IC50 [5]: 0.18 µg/mL (≈ 0.211 µM) | IC50 [6]: 0.44 µg/mL (≈ 0.515 µM) | IC50 [7]: 0.22 µg/mL (≈ 0.258 µM) | IC50 [8]: 0.41 µg/mL (≈ 0.48 µM) | Inhibition rate [9]: 62.87%

O=C1c2c(O)ccc(O)c2C(=O)c2c(NCCNCCO)ccc(NCCNCCO)c21 [DHAD, Mitoxantrone]
Inhibition rate (S180 sarcoma; DHAD 2 mg/kg ip × 2(1, 3)): 50.63** % | Weight of tumor x ± SD (S180 sarcoma; DHAD 2 mg/kg ip × 2(1, 3)): 0.78 ± 0.20 g

N.N.[Cl][Pt][Cl] [Cisplatin]
Inhibition rate (A549 human lung cancer; Cisplatin 1 mg/kg ip × 7 qd): 42.13% | Weight of animal end (A549 human lung cancer; Cisplatin 1 mg/kg ip × 7 qd): 24.0 g | Weight of animal start (A549 human lung cancer; Cisplatin 1 mg/kg ip × 7 qd): 20.2 g | Weight of tumor x ± SD (A549 human lung cancer; Cisplatin 1 mg/kg ip × 7 qd): 0.765 ± 0.11 g | Inhibition rate (A549 human lung cancer; Cisplatin 2 mg/kg ip × 7 qd): 86.31% | Weight of animal end (A549 human lung cancer; Cisplatin 2 mg/kg ip × 7 qd): 23.1 g | Weight of tumor x ± SD (A549 human lung cancer; Cisplatin 2 mg/kg ip × 7 qd): 0.181 ± 0.06 g

CCNC(=O)[C@@H]1CCCN1C(=O)[C@H](CCCNC(=N)N)NC(=O)[C@H](CC(C)C)NC(=O)[C@@H](CC(C)C)NC(=O)[C@H](Cc1ccc(O)cc1)NC(=O)[C@H](CO)NC(=O)[C@H](Cc1c[nH]c2ccccc12)NC(=O)[C@H](Cc1c[nH]cn1)NC(=O)[C@@H]1CCC(=O)N1 [Lupron, Leuprolide acetate]
Inhibition rate ([10]; Lupron 0.75 ml/kg iv × 1): 36.36** % | Weight of tumor x ± SD ([10]; Lupron 0.75 ml/kg iv × 1): 0.98 ± 0.23 g | Inhibition rate ([10]; Lupron 1.5 ml/kg iv × 1): 50.65** % | Weight of tumor x ± SD ([10]; Lupron 1.5 ml/kg iv × 1): 0.76 ± 0.14 g
